Several values for one entry are separate records, joined by “and”; a condition that tells them apart may be missing. Equal entries are not always repeated. Where two headings read alike, the source gives them in different places.
Tests used:
[1] = tested on: PBMC from naïve GD patients; assay: PBMC from Gaucher patients incubated with ConA, IFNg ELISA; settings: for IFNg ELISA, second value (Conc) / IFNg Conc: Colchicine 0.0625 pg/ml or dexamethasone 250 ug/well
[2] = tested on: C57 Bl mice receiving CONA; assay: Daily low dose CONA in mice, regular vs irregular dexamethasone administration, serum ALT; assay type: in vivo; settings: dexamethasone 50 mg/kg per day
Procedure: Mice: 24 C57 Bl mice, 12 weeks old, n=4/group
All animals received daily low dose CONA 300 μg/mouse daily for 10 days
Dexamethasone daily 50 mg/kg per day
ALT serum levels were monitored as follows

C57Bl/6 mice given Con A [3] = assay type: in vivo
[4] = in vivo; cited from earlier work
mice on a High fat diet = assay: Low dose colchicine in high fat diet model of type 2 diabetes and fatty liver; assay type: in vivo; settings: colchicine for two weeks, dose that had no anti-inflammatory effect
Procedure: • Give colchicine at the end of the experiment for two weeks to 4 mice who were on a High fat diet and developed diabetes and fatty liver disease. • Mice are treated with a dose that had no anti-inflammatory effect. • Test for glucose, ALT and cholesterol levels at the end of the two weeks.

C57Bl/6 mice given Con A [5] = assay: Colchicine by gavage once six hours before ConA injection, serum ALT; assay type: in vivo; settings: for ALT Average: N = 3
Procedure: Lack of an effect of low dose colchicine (0.5 mg, 3 times a day) as anti-inflammatory agent, while showing beneficial effect of low dose colchicine in diabetes and fatty liver disease. • Mice: C57Bl/6 mice, 11-12 weeks old • Duration: Mice will be administered once Colchicine six hours before ConA • Sacrifice: 14 hours after ConA injection.
Experiment Protocol: • Day 1: Administer all compounds by gavage 300 ul: saline or Colchicine • After 6 hours give Con A by injection IV 500 μg/mouse=20 mg/kg=[…] • Day 2: On the next day: sacrifice all mice • Take blood for serum ALT The results of this experiments are given in the table below and in FIG. 7.

[6] = Patient 1, lymphocytes only 80.9
[7] = Patient 2, lymphocytes only 474.7

In the case of `C[C@@H]1C[C@H]2[C@@H]3CCC4=CC(=O)C=C[C@]4(C)[C@@]3(F)[C@@H](O)C[C@]2(C)[C@@]1(O)C(=O)CO` [Dexamethasone], the “IFNg ELISA, second value (Conc)” value ([1]; P1, lymphocytes only 80.9) is reported as 33.29, the “IFNg ELISA, second value (Conc)” value ([1]; P2, lymphocytes only 474.7) is reported as 23.29 and the “IFNg Conc” value [1, 6] is reported as 33.29. The “IFNg Conc” value [1, 7] was 23.29, the ALT serum level ([2]; Day 2, group B, regular 8AM every day) was 644.25 and the ALT serum level ([2]; Day 2, group C, irregular time of administration) was 747. The ALT serum level ([2]; Day 5, group B, regular 8AM every day) was 978.75, the ALT serum level ([2]; Day 5, group C, irregular time of administration) was 842.5 and the ALT serum level ([2]; Day 10, group B, regular 8AM every day) was 1210.25. The ALT serum level ([2]; Day 10, group C, irregular time of administration) was 876.75.
In the case of `COc1cc2c(c(OC)c1OC)-c1ccc(OC)c(=O)cc1[C@@H](NC(C)=O)CC2` [Colchicine], the “adjuvant effect on the efficacy of drugs” value (C57Bl/6 mice given Con A [3]; low dose colchicine, summary in words) is listed as “can serve as a potent adjuvant to improve the efficacy of drugs”, the “part of dose excreted unchanged by the kidneys” value [4] is listed as 10-20% and the removal by hemodialysis [4] is listed as “not removed by hemodialysis”. The “Glucose (mg %)” value (mice on a High fat diet; control 190) was 155 mg %, the “ALT (IU)” value (mice on a High fat diet; control 278) was 103 IU and the “Cholesterol (mg %)” value (mice on a High fat diet; control 342) was 100 mg %. For the same molecule, the “IFNg ELISA, second value (Conc)” value ([1]; P1, lymphocytes only 80.9) was 52.3, the “IFNg ELISA, second value (Conc)” value ([1]; P2, lymphocytes only 474.7) was 47.57 and the “IFNg Conc” value [1, 6] was 52.3. The “IFNg Conc” value [1, 7] was 47.57, the “effect on the inflammatory effect of PBMC from patients with Gaucher disease” value ([1]; summary in words) was “profound effect on suppressing the inflammatory effect of PBMC” and the “ALT Average” value (C57Bl/6 mice given Con A [5]; Low dose, Colchicine 0.005 μg/kg by gavage) was 3218. For the same molecule, the “ALT Average” value (C57Bl/6 mice given Con A [5]; Regular dose, Colchicine 0.05 μg/kg by gavage) was 17134 and the ALT (C57Bl/6 mice given Con A [5]; single mice, Regular dose, Colchicine 0.05 μg/kg by gavage, dilution 1/40) was 18946 and 19427 and 13029.
For `Nc1c(Br)cc(Br)cc1CN[C@H]1CC[C@H](O)CC1` [Ambroxol], the “ALT (IU)” value (C57Bl/6 mice given Con A [3]; Ambroxol 1.4 mg PO, alone or with Colchicine 0.01 mg/kg, control 6068) was 4243 IU, the “ALT Average” value (C57Bl/6 mice given Con A [3]; Ambroxol arm, N = 3, control 6068) was 4243 and the ALT (C57Bl/6 mice given Con A [3]; single mice, Ambroxol arm, dilution 1/40) was 3683 and 4187 and 4859.

Reference: patent US11728018B2, “Subject-specific system and method for prevention of body adaptation for chronic treatment of disease” (OBERON SCIENCES ILAN LTD., priority 2017, dated 2023)
